Patent EP4806910A1, “TRI-AGONIST COMPOUND” (priority 2023, dated 2025)

Key:
Format in all cases: cell-based
GCG-R = molecular target: T1, GCG-R (Homo sapiens, UniProt P47871); assay: GCG activity test (cAMP, chemiluminescence)
T1 construct: expressed in transfected cells; host or cells: CHO-K1
Method: (§1) Upon stimulation by a specific agonist, GCG-R activates the intracellular adenylate cyclase signaling pathway, resulting in an increase in cAMP levels and ultimately leading to insulin production and secretion. A cell line stably transfected with GCG-R was stimulated with test compounds, thereby rapidly increasing intracellular cAMP levels. The relative luminescence units (RLU) of cells stimulated at various concentrations were measured by a chemiluminescence method, and the EC50 value of the agonist was calculated accordingly. This activity assay method is currently a commonly used method for evaluating GCG receptor agonist activity both domestically and internationally.
A CHO-K1 cell line stably expressing GCG-R was used. The stable cells were stimulated with agonists at different concentrations, and the relative luminescence units after stimulation at each concentration were measured to calculate the EC50 value of the agonist.

GLP-1R = molecular target: T2, GLP-1R (Homo sapiens, UniProt P43220); assay: GLP-1 activity test (cAMP, chemiluminescence)
T2 construct: expressed in transfected cells; host or cells: CHO-K1
Method: as §1, with “GLP-1R” for “GCG-R”, “test” for “assay”, “GLP-1” for “GCG”, “internationally. A CHO-K1 cell line stably expressing GLP-1R was used. The stable cells were stimulated with agonists at different concentrations, and the relative luminescence units after stimulation at each concentration were measured to calculate the EC50 value of the agonist.” for “internationally.”

GIPR = molecular target: T3, GIPR (Homo sapiens, UniProt P48546); assay: GIP activity test (cAMP, chemiluminescence)
T3 construct: expressed in transfected cells; host or cells: CHO-K1
T3 sequence (P48546 22-466): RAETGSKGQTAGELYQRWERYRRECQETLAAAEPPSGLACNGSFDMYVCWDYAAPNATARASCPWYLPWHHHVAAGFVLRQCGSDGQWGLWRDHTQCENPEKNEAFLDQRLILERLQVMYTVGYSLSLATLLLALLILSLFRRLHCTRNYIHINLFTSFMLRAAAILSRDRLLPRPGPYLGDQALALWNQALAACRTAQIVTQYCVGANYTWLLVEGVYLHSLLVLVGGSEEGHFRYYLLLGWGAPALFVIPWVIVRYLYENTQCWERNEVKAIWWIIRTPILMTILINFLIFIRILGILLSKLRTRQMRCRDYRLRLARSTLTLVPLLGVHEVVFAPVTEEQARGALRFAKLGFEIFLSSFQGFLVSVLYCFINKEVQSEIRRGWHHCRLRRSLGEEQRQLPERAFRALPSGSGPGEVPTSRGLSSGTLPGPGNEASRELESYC
Method: as §1, with “GIPR” for “GCG-R”, “GIP” for “GCG”, “internationally. A CHO-K1 cell line stably expressing GIPR was used. The stable cells were stimulated with agonists at different concentrations, and the relative luminescence units after stimulation at each concentration were measured to calculate the EC50 value of the agonist.” for “internationally.”

T1 sequence (P47871 26-477, species assumed): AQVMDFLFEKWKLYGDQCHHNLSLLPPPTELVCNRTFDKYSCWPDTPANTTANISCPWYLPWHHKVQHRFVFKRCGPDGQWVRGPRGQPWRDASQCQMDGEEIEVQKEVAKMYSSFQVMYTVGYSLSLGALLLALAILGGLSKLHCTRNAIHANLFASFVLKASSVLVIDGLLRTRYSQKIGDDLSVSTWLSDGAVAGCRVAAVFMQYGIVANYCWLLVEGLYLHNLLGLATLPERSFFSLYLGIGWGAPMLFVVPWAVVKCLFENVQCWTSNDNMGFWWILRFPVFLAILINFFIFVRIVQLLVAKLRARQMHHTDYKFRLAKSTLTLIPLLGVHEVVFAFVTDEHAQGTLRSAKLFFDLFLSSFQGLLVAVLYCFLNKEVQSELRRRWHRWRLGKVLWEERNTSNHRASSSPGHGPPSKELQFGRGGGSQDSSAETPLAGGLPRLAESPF
T2 sequence (P43220 24-463, species assumed): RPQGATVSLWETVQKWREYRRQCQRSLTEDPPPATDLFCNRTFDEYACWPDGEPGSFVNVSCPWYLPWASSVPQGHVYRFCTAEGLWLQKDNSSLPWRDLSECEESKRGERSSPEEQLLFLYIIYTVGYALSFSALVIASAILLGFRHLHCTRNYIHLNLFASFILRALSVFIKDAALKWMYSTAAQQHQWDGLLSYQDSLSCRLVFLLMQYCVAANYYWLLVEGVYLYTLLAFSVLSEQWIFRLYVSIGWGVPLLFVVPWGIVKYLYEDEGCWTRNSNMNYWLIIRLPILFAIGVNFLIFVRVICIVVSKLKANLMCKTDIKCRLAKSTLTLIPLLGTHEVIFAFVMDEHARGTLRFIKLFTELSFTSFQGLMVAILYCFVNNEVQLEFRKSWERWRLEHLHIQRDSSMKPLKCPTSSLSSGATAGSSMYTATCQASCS

Structure (SMILES): CC[C@H](C)[C@H](NC(=O)[C@H](Cc1ccccc1)NC(=O)[C@H](C)NC(=O)C(C)(C)NC(=O)[C@H](CCC(N)=O)NC(=O)[C@H](C)NC(=O)[C@H](CCCCNC(=O)COCCOCCNC(=O)CCCCC[C@H](NC(=O)CCCCCCCCCCCCCCCCCCC(=O)O)C(=O)O)NC(=O)[C@H](CCCCN)NC(=O)[C@H](CC(=O)O)NC(=O)[C@H](CC(C)C)NC(=O)C(C)(CC(C)C)NC(=O)[C@@H](NC(=O)[C@H](CO)NC(=O)[C@H](Cc1ccc(O)cc1)NC(=O)[C@H](CC(=O)O)NC(=O)[C@H](CO)NC(=O)[C@@H](NC(=O)C(C)(Cc1ccccc1)NC(=O)[C@@H](NC(=O)CNC(=O)[C@H](CCC(N)=O)NC(=O)C(C)(C)NC(=O)[C@@H](N)Cc1ccc(O)cc1)[C@@H](C)O)[C@@H](C)O)[C@@H](C)CC)C(=O)N[C@@H](CCC(=O)O)C(=O)N[C@@H](Cc1ccc(O)cc1)C(=O)N[C@@H](CC(C)C)C(=O)N[C@@H](CC(C)C)C(=O)N[C@@H](CCC(=O)O)C(=O)NCCCCC(=O)N1CCC[C@H]1C(=O)N[C@@H](CO)C(=O)N[C@@H](CO)C(=O)NCC(=O)N[C@@H](C)C(=O)N1CCC[C@H]1C(=O)N1CCC[C@H]1C(=O)N1CCC[C@H]1C(=O)N[C@@H](CO)C(N)=O (stereo partly drawn) [Compound 4]
- EC50 (GCG-R): 0.286 nM
- EC50 (GLP-1R): 0.0554 nM
- EC50 (GIPR): 0.031 nM

Structure (SMILES): CC[C@H](C)[C@H](NC(=O)[C@H](Cc1ccccc1)NC(=O)[C@H](C)NC(=O)C(C)(C)NC(=O)[C@H](CCC(N)=O)NC(=O)[C@H](C)NC(=O)[C@H](CCCCNC(=O)COCCOCCOCCOCCOCCNC(=O)CC[C@H](NC(=O)CCCCCCCCCCCCCCCCCCC(=O)O)C(=O)O)NC(=O)[C@H](CCCCN)NC(=O)[C@H](CC(=O)O)NC(=O)[C@H](CC(C)C)NC(=O)C(C)(CC(C)C)NC(=O)[C@@H](NC(=O)[C@H](CO)NC(=O)[C@H](Cc1ccc(O)cc1)NC(=O)[C@H](CC(=O)O)NC(=O)[C@H](CO)NC(=O)[C@@H](NC(=O)C(C)(Cc1ccccc1)NC(=O)[C@@H](NC(=O)CNC(=O)[C@H](CCC(N)=O)NC(=O)C(C)(C)NC(=O)[C@@H](N)Cc1ccc(O)cc1)[C@@H](C)O)[C@@H](C)O)[C@@H](C)CC)C(=O)N[C@@H](CCC(=O)O)C(=O)N[C@@H](Cc1ccc(O)cc1)C(=O)N[C@@H](CC(C)C)C(=O)N[C@@H](CC(C)C)C(=O)N[C@@H](CCC(=O)O)C(=O)NCCCCC(=O)N1CCC[C@H]1C(=O)N[C@@H](CO)C(=O)N[C@@H](CO)C(=O)NCC(=O)N[C@@H](C)C(=O)N1CCC[C@H]1C(=O)N1CCC[C@H]1C(=O)N1CCC[C@H]1C(=O)N[C@@H](CO)C(N)=O (stereo partly drawn) [Compound 10]
- EC50 (GCG-R): 0.299 nM
- EC50 (GLP-1R): 0.0494 nM
- EC50 (GIPR): 0.0256 nM

Structure (SMILES): CC[C@H](C)[C@H](NC(=O)[C@H](Cc1ccccc1)NC(=O)[C@H](C)NC(=O)C(C)(C)NC(=O)[C@H](CCC(N)=O)NC(=O)[C@H](C)NC(=O)[C@H](CCCCNC(=O)COCCOCCNC(=O)COCCOCCNC(=O)CC[C@H](NC(=O)CCCCCCCCCCCCCCCCCCC(=O)O)C(=O)O)NC(=O)[C@H](CCCCN)NC(=O)[C@H](CC(=O)O)NC(=O)[C@H](CC(C)C)NC(=O)C(C)(CC(C)C)NC(=O)[C@@H](NC(=O)[C@H](CO)NC(=O)[C@H](Cc1ccc(O)cc1)NC(=O)[C@H](CC(=O)O)NC(=O)[C@H](CO)NC(=O)[C@@H](NC(=O)C(C)(Cc1ccccc1F)NC(=O)[C@@H](NC(=O)CNC(=O)[C@H](CCC(N)=O)NC(=O)C(C)(C)NC(=O)[C@@H](N)Cc1ccc(O)cc1)[C@@H](C)O)[C@@H](C)O)[C@@H](C)CC)C(=O)N[C@@H](CCC(=O)O)C(=O)N[C@@H](Cc1ccc(O)cc1)C(=O)N[C@@H](CC(C)C)C(=O)N[C@@H](CC(C)C)C(=O)N[C@@H](CCC(=O)O)C(=O)NCCCCC(=O)N1CCC[C@H]1C(=O)N[C@@H](CO)C(=O)N[C@@H](CO)C(=O)NCC(=O)N[C@@H](C)C(=O)N1CCC[C@H]1C(=O)N1CCC[C@H]1C(=O)N1CCC[C@H]1C(=O)N[C@@H](CO)C(N)=O (stereo partly drawn) [Compound 11]
- EC50 (GCG-R): 0.174 nM
- EC50 (GLP-1R): 0.0487 nM
- EC50 (GIPR): 0.0253 nM

Structure (SMILES): CC[C@H](C)[C@H](NC(=O)[C@H](Cc1ccccc1)NC(=O)[C@H](C)NC(=O)C(C)(C)NC(=O)[C@H](CCC(N)=O)NC(=O)[C@H](C)NC(=O)[C@H](CCCCNC(=O)COCCOCCNC(=O)COCCOCCNC(=O)CC[C@H](NC(=O)CCCCCCCCCCCCCCCCCCC(=O)O)C(=O)O)NC(=O)[C@H](CCCCN)NC(=O)[C@H](CC(=O)O)NC(=O)[C@H](CC(C)C)NC(=O)C(C)(CC(C)C)NC(=O)[C@@H](NC(=O)[C@H](CO)NC(=O)[C@H](Cc1ccc(O)cc1)NC(=O)[C@H](CC(=O)O)NC(=O)[C@H](CO)NC(=O)[C@@H](NC(=O)C(C)(Cc1ccccc1)NC(=O)[C@@H](NC(=O)CNC(=O)[C@H](CCC(N)=O)NC(=O)C(C)(C)NC(=O)[C@@H](N)Cc1ccc(O)cc1)[C@@H](C)O)[C@@H](C)O)[C@@H](C)CC)C(=O)N[C@@H](CCC(=O)O)C(=O)N[C@@H](Cc1ccc(O)cc1)C(=O)N[C@@H](CC(C)C)C(=O)N[C@@H](CC(C)C)C(=O)N[C@@H](CCC(=O)O)C(=O)NCCCCC(=O)N1CCC[C@H]1C(=O)N[C@@H](CO)C(=O)N[C@@H](CO)C(=O)NCC(=O)N[C@@H](C)C(=O)N1CCC[C@H]1C(=O)N1CCC[C@H]1C(=O)N1CCC[C@H]1C(=O)N[C@@H](CO)C(N)=O (stereo partly drawn) [Compound 9]
- EC50 (GCG-R): 0.307 nM
- EC50 (GLP-1R): 0.0519 nM
- EC50 (GIPR): 0.0268 nM

Structure (SMILES): CC[C@H](C)[C@H](NC(=O)[C@H](Cc1ccccc1)NC(=O)[C@H](C)NC(=O)C(C)(C)NC(=O)[C@H](CCC(N)=O)NC(=O)[C@H](C)NC(=O)[C@H](CCCCNC(=O)COCCOCCNC(=O)CC[C@H](NC(=O)CCCCCCCCCCCCCCCCCCC(=O)O)C(=O)O)NC(=O)[C@H](CCCCN)NC(=O)[C@H](CC(=O)O)NC(=O)[C@H](CC(C)C)NC(=O)C(C)(CC(C)C)NC(=O)[C@@H](NC(=O)[C@H](CO)NC(=O)[C@H](Cc1ccc(O)cc1)NC(=O)[C@H](CC(=O)O)NC(=O)[C@H](CO)NC(=O)[C@@H](NC(=O)C(C)(Cc1ccccc1)NC(=O)[C@@H](NC(=O)CNC(=O)[C@H](CCC(N)=O)NC(=O)C(C)(C)NC(=O)[C@@H](N)Cc1ccc(O)cc1)[C@@H](C)O)[C@@H](C)O)[C@@H](C)CC)C(=O)N[C@@H](CCC(=O)O)C(=O)N[C@@H](Cc1ccc(O)cc1)C(=O)N[C@@H](CC(C)C)C(=O)N[C@@H](CC(C)C)C(=O)N[C@@H](CCC(=O)O)C(=O)NCCCCC(=O)N1CCC[C@H]1C(=O)N[C@@H](CO)C(=O)N[C@@H](CO)C(=O)NCC(=O)N[C@@H](C)C(=O)N1CCC[C@H]1C(=O)N1CCC[C@H]1C(=O)N1CCC[C@H]1C(=O)N[C@@H](CO)C(N)=O (stereo partly drawn) [Compound 1]
- EC50 (GCG-R): 0.271 nM
- EC50 (GLP-1R): 0.045 nM
- EC50 (GIPR): 0.0244 nM
